Values of other authors, collected in patent US20060172021A1, “Herbal compositions for the prevention or treatment of symptoms of stress and infection” (priority 2005, published 2006).

Assays:
[1] = tested on: human progesterone production
female mice = settings: mouse, in vivo

Row | Compound | Inhibition of prostaglandin synthesis (prostaglandin synthesis) | further results
1 | CCCCCC(=O)CC(=O)CCc1ccc(O)c(OC)c1 [gingerdione] | potent inhibitors | –
2 | andrographolide sodium succinate | – | Detrimental effects on other normal human tissue [1]: intended for. There were no detrimental effects; Inhibition of human progesterone production ([1]; cultured human placental tissue): (derived from AP) was effective in inhibiting
3 | CCCCC[C@H](O)CC(=O)CCc1ccc(O)c(OC)c1 [gingerol] | potent inhibitors | –
4 | C=C1CC[C@@H]2[C@](C)(CO)[C@H](O)CC[C@@]2(C)[C@@H]1/C=C/C1=CCOC1=O [dehydroandrographolide] | – | Dose required to affect pregnancy (female mice): 250 mg/kg. of body weight. This amount of pure
5 | CCCCCC(=O)/C=C(O)/C=C\c1ccc(O)c(OC)c1 [dehydrogingerdione] | potent inhibitors | –
